Measurements from US10253017B2, “Derivatives of 2-aminopyridine as adenosine A2B receptor antagonists and ligands of the melatonin MT3 receptors” (PALOBIOFARMA, S.L., priority 2015, dated 2019).

Columns and labels:
adenosine A2B receptor = adenosine A2B receptor (Homo sapiens (Human), UniProt P29275); assay: Adenosine A2B receptor subtype competition radioligand binding assay ([3H]DPCPX); details: human recombinant receptor (HEK-293 cells), [3H]DPCPX radioligand; read-out: hA2B, Ki
Source text: Adenosine A2B Receptor Subtype Competition Radioligand Binding Assay

adenosine A2A receptor = adenosine A2A receptor (Homo sapiens (Human), UniProt P29274); assay: Adenosine A2A receptor binding (hA2A Ki)
MT3 melatonin receptor = MT3 melatonin receptor (Mesocricetus auratus, UniProt A0ABM2YAB8); assay: Binding to melatonin MT3 binding sites ([125I]2-iodomelatonin, hamster brain membranes); details: [125I]2-iodomelatonin radioligand
Description: Study of Binding to Melatonin MT3 Binding Sites
The experiment of binding to MT3 sites was carried out on hamster brain membranes using [^125I]2-iodomelatonin as radioligand in accordance with the protocol described by Pickering, D. S et al. (Pickering, D. S et al, 1990, Pharmacological characterization of melatonin binding sites in Syrian hamster hypothalamus, Eur J Pharmacol. 1990 Jan. 3; 175(1):71-7).

Chain of MT3 melatonin receptor (A0ABM2YAB8 1-231): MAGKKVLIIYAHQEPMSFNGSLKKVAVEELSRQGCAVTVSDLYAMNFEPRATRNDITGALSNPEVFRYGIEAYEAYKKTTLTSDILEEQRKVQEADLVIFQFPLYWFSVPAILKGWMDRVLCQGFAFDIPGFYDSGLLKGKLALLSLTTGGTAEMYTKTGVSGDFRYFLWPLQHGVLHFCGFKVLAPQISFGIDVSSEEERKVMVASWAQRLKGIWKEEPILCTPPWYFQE
Chain of adenosine A2A receptor (P29274 whole entry): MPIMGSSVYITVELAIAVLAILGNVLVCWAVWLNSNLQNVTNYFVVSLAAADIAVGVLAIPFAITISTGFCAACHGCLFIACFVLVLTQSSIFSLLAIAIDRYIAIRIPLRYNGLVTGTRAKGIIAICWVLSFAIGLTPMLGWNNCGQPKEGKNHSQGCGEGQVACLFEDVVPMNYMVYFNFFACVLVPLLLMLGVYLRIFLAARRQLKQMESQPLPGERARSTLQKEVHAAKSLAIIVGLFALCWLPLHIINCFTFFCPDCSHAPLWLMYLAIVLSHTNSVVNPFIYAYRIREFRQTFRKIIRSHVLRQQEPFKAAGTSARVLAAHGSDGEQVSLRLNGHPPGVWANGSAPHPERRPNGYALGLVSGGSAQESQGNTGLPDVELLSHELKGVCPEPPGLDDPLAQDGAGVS
Chain of adenosine A2B receptor (P29275 whole entry): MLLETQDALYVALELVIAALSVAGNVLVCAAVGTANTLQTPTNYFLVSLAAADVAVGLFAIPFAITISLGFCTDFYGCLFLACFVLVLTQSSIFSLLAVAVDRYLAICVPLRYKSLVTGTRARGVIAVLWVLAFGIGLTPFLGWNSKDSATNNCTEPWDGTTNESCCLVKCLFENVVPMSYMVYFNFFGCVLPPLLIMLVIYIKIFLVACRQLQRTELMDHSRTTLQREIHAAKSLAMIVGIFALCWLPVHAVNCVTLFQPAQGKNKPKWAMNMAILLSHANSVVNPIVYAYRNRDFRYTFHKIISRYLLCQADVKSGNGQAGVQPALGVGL

Ki (adenosine A2B receptor)	Ki (adenosine A2A receptor)	IC50 (MT3 melatonin receptor)	Compound
0.013 µM	1.3 µM	–	Nc1nc(-c2ccncc2)c(-c2ccncc2F)cc1Br [Example 35, 3-bromo-5-(3-fluoropyridin-4-yl)-6-(pyridin-4-yl)pyridin-2-amine]
0.15 µM	> 5 µM	0.25 µM	Nc1nc(-c2cncc(F)c2)c(-c2ccncc2F)cc1Cl [Example 27, 3-chloro-6-(5-fluoropyridin-3-yl)-5-(3-fluoropyridin-4-yl)pyridin-2-amine]
0.0345 µM	0.5 µM	0.13 µM	Nc1nc(-c2cccnc2)c(-c2ccncc2)cc1Cl [Example 21, 3-chloro-6-(pyridin-3-yl)-5-(pyridin-4-yl)pyridin-2-amine]
0.024 µM	> 5 µM	–	COc1ccc(-c2nc(N)c(Cl)cc2-c2ccncc2F)cn1 [Example 36, 3-chloro-5-(3-fluoropyridin-4-yl)-6-(6-methoxypyridin-3-yl)pyridin-2-amine]
0.0239 µM	4.8 µM	0.098 µM	Nc1nc(-c2cccnc2)c(-c2ccncc2F)cc1Cl [Example 23, 3-chloro-5-(3-fluoropyridin-4-yl)-6-(pyridin-3-yl)pyridin-2-amine]
0.037 µM	> 5 µM	–	Nc1nc(-c2cccnc2)c(-c2ccncc2F)cc1Br [Example 24, 3-bromo-5-(3-fluoropyridin-4-yl)-6-(pyridin-3-yl)pyridin-2-amine]
0.0461 µM	0.3 µM	0.14 µM	Nc1nc(-c2cccnc2)c(-c2ccncc2)cc1Br [Example 22, 3-bromo-6-(pyridin-3-yl)-5-(pyridin-4-yl)pyridin-2-amine]
0.149 µM	> 5 µM	–	Nc1ccc(-c2ccncc2F)c(-c2ccncc2)n1 [Example 11, 5-(3-fluoropyridin-4-yl)-6-(pyridin-4-yl)pyridin-2-amine]
0.012 µM	0.555 µM	–	Nc1nc(-c2ccncc2)c(-c2ccncc2F)cc1Cl [Example 34, 3-chloro-5-(3-fluoropyridin-4-yl)-6-(pyridin-4-yl)pyridin-2-amine]
